According to paper PMC7010297, “How the initiating ribosome copes with ppGpp to translate mRNAs” (PLoS Biology, 2020):
Values joined by “and” are separate entries in the source; they are usually repeats but may differ in a detail not shown here. Identical values can stand only once.

How the values were obtained:
[1] = target: T1, IF2-bound 30S IC (Escherichia coli, UniProt P0A705); assay: 30S IC formation by MST, guanosine nucleotide titration; assay type: binding; details: for MST Average / MST Replicates (a.u.): Fig 2B;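 as to MST Average: lower thermophoresis signal means Bpy-tRNAi dissociation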;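 as to MST Replicates (a.u.): lower thermophoresis signal means Bpy-tRNAi dissociation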
T1 construct: 6xHis (N); made in house
Source text: (§1) To monitor the interaction of initiator tRNA and 30S ribosomal subunits, we used Microscale Thermophoresis (MST) with a fluorescently labelled initiator tRNA (Bpy-tRNAi) (Fig 1B). MST allows to measure fluorescence in a constrained space. Changes on the readout derive from molecular drifts resulting from small thermal equilibrium perturbations. Upon equilibrium perturbations, the patterns of Bpy-tRNAi migration away from the observation space are related to bound and unbound states (Fig 1B). […] On the contrary, a decrease in thermophoresis indicated the dissociation of Bpy-tRNAi. The relation between fluorescence measured at both equilibriums (Ff to Fi, after and prior to the perturbation, respectively) as a function of ligand concentration allowed to determine dissociation constants of the interaction (Fig 1C).
(§2) Continuous lines indicate nonlinear regression fittings with a quadratic equation. Three measurements were performed; mean and standard deviation are plotted (S1 Data). (B) as (A) to measure the concentration dependence for each tested guanosine nucleotide at constant IF2 (1 μM). […] Continuous lines show best fits using exponential functions. (D) Formation of 70S IC as measured by Bpy-tRNAi accommodation in the P site of the ribosome; 0.1 μM 30S ICs were formed with Bpy-tRNAi and rapidly mixed with 0.3 μM 50S subunits on a stopped-flow apparatus as described in [14]. Colors are as in (C). Continuous lines show best fits using an exponential function for a single reaction step. Each stopped-flow trace results from the mean of 5 to 7 replicates.
MST was calculated from the respective fluorescence time dependencies (S3 Fig). […] Symbols as in (B). […] Continuous lines indicate nonlinear regression fittings with quadratic (B and E) or same-site competition (G) functions. Three measurements were performed; mean and standard deviations are plotted (S1 Data).

[2] = target: T2, 30S IC (30S-bound IF2, Bpy-tRNAi) (Escherichia coli, UniProt P0A705); assay: 30S IC formation measured by MST at increasing concentrations of IF2 with guanosine nucleotides; assay type: binding; details: Fig 2A
T2 construct: 6xHis (N); made in house
Source text: as §1, §2

[3] = target: T3, 70S pre-IC (50S joining to 30S IC) (Escherichia coli, UniProt P0A705); assay: 70S pre-IC formation by light scattering, stopped-flow; assay type: biochemical; details: 30S complexes formed with 0.2 mM nucleotide, mixed with 50S subunits
T3 construct: 6xHis (N); made in house
Protocol: as §2
(§3) (A) Scheme of 70S IC formation. […] Time traces were analyzed by nonlinear regression with exponential terms. […] Formation of 70S IC, as measured by Bpy-tRNAi accommodation in the absence (F) or presence of 200 μM ppGpp (G). Time traces were analyzed by nonlinear regression with one exponential term. […] Continuous lines show best fits using an exponential function for a single reaction step. All time traces are mean values of 5 to 10 replicates. Bar graphs show mean and standard errors (error bars) derived from the nonlinear regression fitting (D,E,H,I) (S1 Data).
(§4) To measure 70S pre-IC formation, a SX-20 stopped-flow instrument (Applied Photophysics, Leatherhead, UK) was set up for LS recording with an excitation wavelength of 430 nm. Scattered light was measured at an angle of 90° without a filter. Pseudo first-order conditions were approximated by using ≥3-fold excess of 50S subunits over 30S ICs; 0.2 μM 30S ICs were rapidly mixed in the instrument with 0.6 μM 50S at 25 °C. Bpy-tRNAi accommodation was measured essentially as described elsewhere. Briefly, 0.2 μM 30S ICs were formed using Bpy-tRNAi and rapidly mixed with 0.6 μM 50S at 25 °C. Fluorescence was excited at 470 nm and measured after a 495-nm longpass filter. Individual traces (6–11 traces) were averaged, and the resulting kinetic curve was approximated by single (F = A0 + A1*exp (-kapp1*t)) or double (F = A0 + A1*exp (-kapp1*t) + A2*exp (-kapp2*t)) exponential fit using Graphpad Prism 6.0 software (GraphPad, San Diego, California).

[4] = target: T4, 70S IC (Escherichia coli, UniProt P0A705); assay: 70S IC formation by Bpy-tRNAi accommodation, stopped-flow; assay type: biochemical
T4 construct: 6xHis (N); made in house
Protocol: as §2, §3, §4

T2 sequence (P0A705 whole entry, looked up): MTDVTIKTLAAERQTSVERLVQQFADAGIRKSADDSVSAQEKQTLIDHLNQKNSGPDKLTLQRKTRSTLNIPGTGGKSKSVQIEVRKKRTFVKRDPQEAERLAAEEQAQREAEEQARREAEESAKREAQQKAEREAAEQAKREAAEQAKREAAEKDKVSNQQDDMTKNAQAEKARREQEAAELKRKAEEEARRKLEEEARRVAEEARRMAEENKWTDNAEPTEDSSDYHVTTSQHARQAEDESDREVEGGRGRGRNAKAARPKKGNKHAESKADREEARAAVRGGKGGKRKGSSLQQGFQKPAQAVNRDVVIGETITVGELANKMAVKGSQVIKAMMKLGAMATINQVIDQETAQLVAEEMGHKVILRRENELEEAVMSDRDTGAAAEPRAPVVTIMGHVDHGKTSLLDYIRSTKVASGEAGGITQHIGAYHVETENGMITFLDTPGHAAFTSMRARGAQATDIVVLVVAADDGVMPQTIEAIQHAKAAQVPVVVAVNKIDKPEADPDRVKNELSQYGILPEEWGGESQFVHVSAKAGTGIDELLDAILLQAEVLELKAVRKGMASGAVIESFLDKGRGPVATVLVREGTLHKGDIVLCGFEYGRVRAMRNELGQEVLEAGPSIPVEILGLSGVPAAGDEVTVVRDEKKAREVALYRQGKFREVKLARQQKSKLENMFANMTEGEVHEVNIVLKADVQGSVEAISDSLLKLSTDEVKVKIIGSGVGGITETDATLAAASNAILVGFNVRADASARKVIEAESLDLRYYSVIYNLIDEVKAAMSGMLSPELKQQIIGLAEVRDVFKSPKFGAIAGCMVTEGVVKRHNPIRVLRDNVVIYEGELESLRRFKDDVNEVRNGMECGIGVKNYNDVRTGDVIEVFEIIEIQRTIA
T1 sequence (P0A705 whole entry, looked up): as above
T4 sequence (P0A705 whole entry, looked up): as above
T3 sequence (P0A705 whole entry, looked up): as above

SMILES: Nc1nc2c(ncn2[C@@H]2O[C@H](COP(=O)(O)OP(=O)(O)OP(=O)(O)O)[C@@H](OP(=O)(O)OP(=O)(O)O)[C@H]2O)c(=O)[nH]1 [pppGpp]
- MST Average ([1]; nucleotide 0.005 µM): 927.64 a.u.
- MST Replicates (a.u.) ([1]; nucleotide 0.005 µM, constant IF2 (1 μM)): 925.66 a.u. and 928.15 a.u. and 929.12 a.u.
- MST Average ([1]; nucleotide 0.01 µM): 929.62 a.u.
- MST Replicates (a.u.) ([1]; nucleotide 0.01 µM): 928.28 a.u. and 930.44 a.u. and 930.13 a.u.
- MST Average ([1]; nucleotide 0.02 µM): 931.44 a.u.
- MST Replicates (a.u.) ([1]; nucleotide 0.02 µM): 929.17 a.u. and 931.64 a.u. and 933.52 a.u.
- MST Average ([1]; nucleotide 0.04 µM): 936.26 a.u.
- MST Replicates (a.u.) ([1]; nucleotide 0.04 µM): 935.68 a.u. and 936.43 a.u. and 936.67 a.u.
- MST Average ([1]; nucleotide 0.08 µM): 942.88 a.u.
- MST Replicates (a.u.) ([1]; nucleotide 0.08 µM): 942.08 a.u. and 943.53 a.u. and 943.02 a.u.
- MST Average ([1]; nucleotide 0.16 µM): 950.27 a.u.
- MST Replicates (a.u.) ([1]; nucleotide 0.16 µM): 947.31 a.u. and 952.19 a.u. and 951.31 a.u.
- MST Average ([1]; nucleotide 0.31 µM): 960.78 a.u.
- MST Replicates (a.u.) ([1]; nucleotide 0.31 µM): 960.77 a.u. and 960.89 a.u. and 960.69 a.u.
- MST Average ([1]; nucleotide 0.63 µM): 981.69 a.u.
- MST Replicates (a.u.) ([1]; nucleotide 0.63 µM): 982.02 a.u. and 981.68 a.u. and 981.38 a.u.
- MST Average ([1]; nucleotide 1.25 µM): 1004.44 a.u.
- MST Replicates (a.u.) ([1]; nucleotide 1.25 µM): 1006.47 a.u. and 1004.17 a.u. and 1002.69 a.u.
- MST Average ([1]; nucleotide 2.50 µM): 1012.89 a.u.
- MST Replicates (a.u.) ([1]; nucleotide 2.50 µM): 1008.41 a.u. and 1015.77 a.u. and 1014.48 a.u.
- MST Average ([1]; nucleotide 5.00 µM): 1025.14 a.u.
- MST Replicates (a.u.) ([1]; nucleotide 5.00 µM): 1023.12 a.u. and 1027.23 a.u. and 1025.07 a.u.
- MST Average ([1]; nucleotide 10.00 µM): 1030.92 a.u.
- MST Replicates (a.u.) ([1]; nucleotide 10.00 µM): 1031.01 a.u. and 1031.12 a.u. and 1030.63 a.u.
- MST Average ([1]; nucleotide 20.00 µM): 1013.38 a.u.
- MST Replicates (a.u.) ([1]; nucleotide 20.00 µM): 1013.59 a.u. and 1013.77 a.u. and 1012.79 a.u.
- Kd ([1]; nucleotide titration at constant IF2 (1 μM), read-out: KD for the IF2-bound 30S IC): 0.5 ± 0.1 µM
- MST Average ([2]; IF2 0.16 µM): 944.96 a.u.
- MST Replicates (a.u.) ([2]; IF2 0.16 µM, in the presence of the nucleotide): 945.84 a.u. (2×) and 943.18 a.u.
- MST Average ([2]; IF2 0.31 µM): 951.85 a.u.
- MST Replicates (a.u.) ([2]; IF2 0.31 µM): 948.28 a.u. and 951.55 a.u. and 955.73 a.u.
- MST Average ([2]; IF2 0.63 µM): 965.81 a.u.
- MST Replicates (a.u.) ([2]; IF2 0.63 µM): 963.82 a.u. and 965.27 a.u. and 968.34 a.u.
- MST Average ([2]; IF2 1.25 µM): 989.55 a.u.
- MST Replicates (a.u.) ([2]; IF2 1.25 µM): 985.24 a.u. and 988.50 a.u. and 994.92 a.u.
- MST Average ([2]; IF2 2.50 µM): 1020.82 a.u.
- MST Replicates (a.u.) ([2]; IF2 2.50 µM): 1014.01 a.u. and 1021.45 a.u. and 1027.00 a.u.
- MST Average ([2]; IF2 5.00 µM): 1015.83 a.u.
- MST Replicates (a.u.) ([2]; IF2 5.00 µM): 1011.56 a.u. and 1015.17 a.u. and 1020.77 a.u.
- kapp of 70S pre-IC formation (LS) [3]: 2.9 ± 0.3 s^–1
- kapp of Bpy-tRNAi accommodation (70S IC formation) ([4]; 30S ICs formed with 0.2 mM nucleotide, mixed with 50S subunits): 1.2 ± 0.2 s^–1
- Bpy-tRNAi accommodation slower than with GTP ([4]; compared to GTP-bound IF2): 2 fold
